According to US4056520A (Research Corporation, priority 1975, dated 1977):

System: pituitary dwarf
Assay: Metabolic studies in a pituitary dwarf (human growth hormone-like activity)
Type: in vivo
Conditions: same pituitary dwarf
Method: There was also observed an increase in urinary calcium. […] This fraction in accordance with this invention evidencing clinical activity was administered by injection into the pituitary dwarf.
In the treatment of the pituitary dwarf mentioned hereinabove with the active A-II fraction, the treatment involved metabolic studies. The pituitary dwarf received 5 milligrams of the A-II fraction dissolved in water twice a day intramuscularly for five days. The active A-II fraction could just as well been given intravenously although one would predict that the effects would be more prolonged with intramuscular injection. It would appear unlikely that the A-II fraction, being a peptide, could efficiently be given orally since it would be digested in the gastrointestinal tract.

human growth hormone: human growth hormone given to the same pituitary dwarf for comparison
responses compared with the A-II fraction: qualitatively the same although the human growth hormone was more effective
